The structures appear in SMILES notation.

Test [1] relates to acyl coenzyme-A:cholesterol-O-acyl transferase (ACAT;EC 2.3.1.26). Description: In vitro ACAT inhibition in rat liver microsomes incubated with radiolabelled oleoyl-CoA. The format is biochemical. Here is the method: In assays performed in vitro, microsomes (prepared from the livers of rats fed a diet supplemented with 0.5%w/w cholesterol and 0.25%w/w cholic acid for 7 days) were incubated with radiolabelled oleoyl-CoA in the presence of compounds according to the invention at a concentration (in »g/m1) as shown in Table 1.

In test [2] the test system is plasma cholesterol level. Description: In vivo inhibition of the increase in plasma cholesterol level in cholesterol/cholic acid-fed rats. The conditions noted are these: increase in plasma cholesterol level measured after 3 days, relative to control animals on cholesterol supplemented diet; for inhibition in vivo at 0.03 % strength / inhibition in vivo at 0.01 % strength: Rattus norvegicus, feed or water, 72 h, read-out: In-vivo % Reduction; for inhibition in vivo at 0.03 % strength / In-vivo % Reduction: dose 0.03 %w/w in diet; for inhibition in vivo at 0.01 % strength: dose 0.01 %w/w in diet.

Where [3] appears, read: concentration 0.5 »g/m1, microsomes from livers of rats fed 0.5%w/w cholesterol and 0.25%w/w cholic acid for 7 days.
The mark [4] stands for this setting: concentration 1.0 »g/m1, microsomes from livers of rats fed 0.5%w/w cholesterol and 0.25%w/w cholic acid for 7 days.

In the case of `c1ccc(-c2nc(SCCCSc3ncccn3)[nH]c2-c2ccccc2)cc1` [A, 2-[3-(Pyrimidin-2-ylthio)propylthio]-4,5-diphenylimidazole], the “In-vitro % Inhibition” value in test [1] (setting [3]) is 88%. Besides, the inhibition in vivo at 0.03 % strength in test [2] was found to be 7%. Regarding `Cn1ccnc1SCCCSc1nc(-c2ccccc2)c(-c2ccccc2)[nH]1` [C, 2-[3-(1-Methylimidazol-2-ylthio)propylthio]-4,5-diphenylimidazole], the “In-vitro % Inhibition” value in test [1] (setting [3]) came to 93%. In test [2], the “In-vivo % Reduction” value was determined as 66%. Take `c1ccc(-c2nc(SCCCSc3ccncc3)[nH]c2-c2ccccc2)cc1` [Compound B, 2-[3-(Pyrid-4-ylthio)propylthio]-4,5-diphenylimidazole]: the “In-vitro % Inhibition” value in test [1] (setting [3]) stood at 90%. In test [2], the inhibition in vivo at 0.03 % strength is 91%.

Take `Cl.Cl.Cn1ccnc1SCCCSc1nc(-c2ccccc2)c(-c2ccccc2)[nH]1` [Compound D, 2-[3-(1-Methylimidazol-2-ylthio)propylthio]-4,5-diphenylimidazole dihydrochloride]: the “In-vivo % Reduction” value in test [2] was determined as 88%. Take `Cc1cc(C)nc(SCCCSc2nc(-c3ccccc3)c(-c3ccccc3)[nH]2)n1` [Compound G, 2-[3-(4,6-Dimethylpyrimidin-2-ylthio)propylthio]-4,5-diphenylimidazole]: in test [1] (setting [3]), the “In-vitro % Inhibition” value is recorded as 80%. On to `Cn1ccnc1S(=O)(=O)CCCSc1nc(-c2ccccc2)c(-c2ccccc2)[nH]1` [Compound H, 2-[3-(1-Methylimidazol-2-ylsulphonyl)propylthio]-4,5-diphenylimidazole], for which the “In-vitro % Inhibition” value in test [1] (setting [3]) was found to be 90%. Moreover, the inhibition in vivo at 0.03 % strength in test [2] amounted to 108%. Consider `Cn1cnnc1SCCCSc1nc(-c2ccccc2)c(-c2ccccc2)[nH]1` [Compound I, 2-[3-(4-Methyl-1,2,4-triazol-3-ylthio)propylthio]-4,5-diphenylimidazole], for which the “In-vitro % Inhibition” value in test [1] (setting [3]) turned out to be 84%. For the same molecule, in test [2], the inhibition in vivo at 0.01 % strength is 5%. On the same counts, the results for `Cl.Cl.c1ccc(-c2nc(SCCCSc3nc(-c4ccccn4)c(-c4ccccn4)[nH]3)[nH]c2-c2ccccc2)cc1` [Compound K, 1-(4,5-Diphenylimidazol-2-ylthio)-3-[(4,5-dipyrid-2-yl)imidazol-2-ylthio]propane dihydrochloride] are 77% and 4%. With `Cn1nnnc1S(=O)(=O)CCCSc1nc(-c2ccccc2)c(-c2ccccc2)[nH]1` [Compound L, 2-[3-(1-Methyltetrazol-5-ylsulphonyl)propylthio]-4,5-diphenylimidazole], the “In-vitro % Inhibition” value in test [1] (setting [3]) was determined as 19%. In the case of `Cn1ccnc1S(=O)(=O)CCCCS(=O)(=O)c1nc(-c2ccccc2)c(-c2ccccc2)[nH]1` [Compound O, 2-[4-(1-Methylimidazol-2-ylsulphonyl)butylsulphonyl]-4,5-diphenylimidazole], the “In-vitro % Inhibition” value in test [1] (setting [3]) worked out at 23%. Same read-out and setting: the figure for `Cn1ccnc1SCCCCCCSc1nc(-c2ccccc2)c(-c2ccccc2)[nH]1` [Compound R, 2-[6-(1-Methylimidazol-2-ylthio)hexylthio]-4,5-diphenylimidazole] is 95%; for `c1ccc(-c2nc(SCCCCCCCCCSc3nc(-c4ccccc4)c(-c4ccccc4)[nH]3)[nH]c2-c2ccccc2)cc1` [Compound S, 1,9-Bis(4,5-diphenylimidazol-2-ylthio)nonane] it is 77%. The same measure, in the same setting: under `Cn1ccnc1SCCCCCCCCCSc1nc(-c2ccccc2)c(-c2ccccc2)[nH]1` [Compound T, 2-[9-(1-Methylimidazol-2-ylthio)nonylthio]-4,5-diphenylimidazole] stands 91%.

As for `c1ccc(-c2nc(SCCSc3nc(-c4ccccc4)c(-c4ccccc4)[nH]3)[nH]c2-c2ccccc2)cc1` [E, 1,2-Bis(4,5-diphenylimidazol-2-ylthio)ethane], in test [1] (setting [4]), the “In-vitro % Inhibition” value was 88%. On to `c1ccc(-c2nc(SCCCSc3nc(-c4ccccc4)c(-c4ccccc4)[nH]3)[nH]c2-c2ccccc2)cc1` [F, 1,3-Bis(4,5-diphenylimidazol-2-ylthio)propane], for which the “In-vitro % Inhibition” value in test [1] (setting [4]) came to 96%. For the same molecule, the inhibition in vivo at 0.03 % strength in test [2] was determined as 72%. For the molecule `Cn1nnnc1SCCCSc1nc(-c2ccccc2)c(-c2ccccc2)[nH]1` [J, 2-[3-(1-Methyltetrazol-5-ylthio)propylthio]-4,5-diphenylimidazole], the “In-vitro % Inhibition” value in test [1] (setting [3]) was 84%. In addition, in test [2], the inhibition in vivo at 0.01 % strength was determined as 17%. On the same counts, the results for `c1ccc(-c2nc(SCCCSc3ncc[nH]3)[nH]c2-c2ccccc2)cc1` [M, 2-[3-(Imidazol-2-ylthio)propylthio]-4,5-diphenylimidazole] are 95% and 107%. In the case of `Cn1ccnc1SCCCCSc1nc(-c2ccccc2)c(-c2ccccc2)[nH]1` [N, 2-[4-(1-Methylimidazol-2-ylthio)butylthio]-4,5-diphenylimidazole], the “In-vitro % Inhibition” value in test [1] (setting [3]) was determined as 94%. Moreover, the inhibition in vivo at 0.03 % strength in test [2] was 98%. In the case of `c1ccc(-c2nc(SCCCCSc3nc(-c4ccccc4)c(-c4ccccc4)[nH]3)[nH]c2-c2ccccc2)cc1` [P, 1,4-Bis(4,5-diphenylimidazol-2-ylthio)butane], in test [1] (setting [3]), the “In-vitro % Inhibition” value is reported as 97%. For the molecule `C(=C\CSc1nc(-c2ccccc2)c(-c2ccccc2)[nH]1)/CSc1nc(-c2ccccc2)c(-c2ccccc2)[nH]1` [Q, E-1,4-Bis(4,5-diphenylimidazol-2-ylthio)but-2-ene], in test [1] (setting [3]), the “In-vitro % Inhibition” value was 98%. Also, the inhibition in vivo at 0.01 % strength in test [2] was found to be 74%.

(Values after patent EP0505468B1, “IMIDAZOLE DERIVATIVES AND THEIR USE AS ACYL COENZYME-A INHIBITORS” (RHONE-POULENC SANTE, priority 1989, dated 1991).)
